Data published in PMC7689752 (Clinical Pharmacology and Therapeutics, 2020).

How the values were obtained:
[1] = parameters: species or system human; settings: prediction for high-clearance drugs, not studied here
[2] = Integrated population pharmacokinetic model; format: in vivo, human; settings: for PNA on Cl: increase of clearance per hour of postnatal age, first 5 days of life; for Decrease of clearance during TH compared with normothermia: 33.5°C vs 36.5°C; for TEMP on Cl: reduction of clearance per °C of body temperature below 36.5°C
[3] = interindividual variability in clearance, common eta

SMILES: N=C1N[C@H]2[C@H](CS[C@H]2CCCCC(=O)O)N1 [2‐iminobiotin]
- Expected change of clearance with PNA [1]: The same prediction can be made

SMILES: CC1(C)S[C@@H]2[C@H](NC(=O)[C@H](N)c3ccc(O)cc3)C(=O)N2[C@H]1C(=O)O [Amoxicillin, amoxicillin]
- PNA on Cl [2]: 1.23 %/h

SMILES: CC1(C)S[C@@H]2[C@H](NC(=O)Cc3ccccc3)C(=O)N2[C@H]1C(=O)O [Benzylpenicillin, benzylpenicillin]
- PNA on Cl [2]: 1.23 %/h
- Correlation in clearance with Amoxicillin [2, 3]: 35.5%
- Correlation in clearance with HMG [2, 3]: 52.8%
- Correlation in clearance with M6G [2, 3]: 27.4%
- Correlation in clearance with Midazolam [2, 3]: 52.8%
- Correlation in clearance with Morphine [2, 3]: 58.6%
- Correlation in clearance with OHM [2, 3]: 53.4%

SMILES: CNC(C)C1CCC(N)C(OC2C(N)CC(N)C(OC3OCC(C)(O)C(NC)C3O)C2O)O1 (stereo not shown) [Gentamicin, gentamicin]
- PNA on Cl [2]: 1.23 %/h
- Correlation in clearance with Amoxicillin [2, 3]: 27.9%
- Correlation in clearance with Benzylpenicillin [2, 3]: 38.8%
- Correlation in clearance with HMG [2, 3]: 41.4%
- Correlation in clearance with M3G [2, 3]: 23.4%
- Correlation in clearance with M6G [2, 3]: 21.5%
- Correlation in clearance with Midazolam [2, 3]: 41.4%
- Correlation in clearance with Morphine [2, 3]: 45.9%
- Correlation in clearance with OHM [2, 3]: 41.8%

SMILES: O=C(O)[C@H]1O[C@@H](OCc2ncc3n2-c2ccc(Cl)cc2C(c2ccccc2F)=NC3)[C@H](O)[C@@H](O)[C@@H]1O [HMG, hydroxymidazolam glucuronide]
- PNA on Cl [2]: 1.23 %/h
- Correlation in clearance with M3G [2, 3]: 31.9%
- Correlation in clearance with M6G [2, 3]: 29.3%
- Correlation in clearance with Midazolam [2, 3]: 56.4%
- Correlation in clearance with Morphine [2, 3]: 62.6%
- Correlation in clearance with OHM [2, 3]: 57.0%

SMILES: CN1CC[C@]23c4c5ccc(O[C@@H]6O[C@H](C(=O)O)[C@@H](O)[C@H](O)[C@H]6O)c4O[C@H]2[C@@H](O)C=C[C@H]3[C@H]1C5 [M3G, morphine‐3‐glucuronide]
- PNA on Cl [2]: 1.23 %/h
- Correlation in clearance with Midazolam [2, 3]: 31.9%
- Correlation in clearance with Morphine [2, 3]: 35.4%
- Correlation in clearance with OHM [2, 3]: 32.2%

SMILES: CN1CC[C@]23c4c5ccc(O)c4O[C@H]2[C@@H](O[C@@H]2O[C@H](C(=O)O)[C@@H](O)[C@H](O)[C@H]2O)C=C[C@H]3[C@H]1C5 [M6G, morphine‐6‐glucuronide]
- PNA on Cl [2]: 1.23 %/h
- Correlation in clearance with M3G [2, 3]: 94.8%
- Correlation in clearance with Midazolam [2, 3]: 29.3%
- Correlation in clearance with Morphine [2, 3]: 32.5%
- Correlation in clearance with OHM [2, 3]: 29.6%

SMILES: CCNCC(=O)Nc1c(C)cccc1C [MEGX, monoethylglycinexylidide]
- PNA on Cl [2]: 1.23 %/h

SMILES: Cc1ncc2n1-c1ccc(Cl)cc1C(c1ccccc1F)=NC2 [Midazolam, midazolam]
- Decrease of clearance during TH compared with normothermia [2]: 20.5%
- PNA on Cl [2]: 0.540 %/h
- Correlation in clearance with Morphine [2, 3]: 62.2%
- TEMP on Cl [2]: 6.83 %/°C

SMILES: OCc1ncc2n1-c1ccc(Cl)cc1C(c1ccccc1F)=NC2 [OHM, 1‐hydroxymidazolam]
- Decrease of clearance during TH compared with normothermia [2]: 20.5%
- PNA on Cl [2]: 0.540 %/h
- Correlation in clearance with Midazolam [2, 3]: 57.0%
- Correlation in clearance with Morphine [2, 3]: 63.3%
- TEMP on Cl [2]: 6.83 %/°C

SMILES: CCC1(c2ccccc2)C(=O)NC(=O)NC1=O [Phenobarbital, phenobarbital]
- PNA as covariate on clearance (in words) ([2]; recovery of organ function): No effect of PNA was identified

SMILES: Oc1ncnc2[nH]ncc12 [allopurinol]
- Expected change of clearance with PNA [1]: The same prediction can be made

SMILES: CC[C@@H](C(N)=O)N1CCCC1=O [levetiracetam]
- Expected change of clearance with PNA [1]: clearance increases strongly with PNA
